Data on 18 compounds can be found in patent US4587233A, “Use of Arg-Phe-amide derivatives” (Board of Trustees of the Leland Stanford Junior University, priority 1983, dated 1986).

Test [1] has as its system Blood Pressure of Anesthetized Rats. The test is described as follows: Blood pressure bioassay in urethane-anesthetized rats, peptides injected intravenously. It is filed as in vivo, male Sprague-Dawley rats. Further details: key to Duration of blood pressure effect: +: short-lasting blood pressure elevation at all doses; ++: short-lasting blood pressure elevation at low doses; +++: long-lasting elevation at low doses. To be noted: i.v.; for Maximal increase in blood pressure mm Hg diastolic / Maximal increase in blood pressure mm Hg systolic: over the dose-range tested (nmol/kg). How it is done:
Bioassays were conducted on male Sprague-Dawley rats, weighing 250-450 g, and anesthetized by an intraperitoneal injection of a 25 percent urethane solution (1.25 g/kg). The left femoral artery was cannulated with PE 50 polyethylene tubing for monitoring of blood pressure with a pressure transducer RP-1500 (Narco Biosystems). Injections of peptides or drugs were made via a PE 10 tubing into the left femoral vein. Respiration was measured by an impedance method by which the respiratory movements of the chest are registered. The method gives indirect information on respiration amplitude. Heart and respiration frequency were obtained by using biotachometer couplers which measure mean frequencies. Body temperature was measured in the rectum with a thermistor (Yellow Springs Instruments) and maintained between 36.5° and 37.5° C. Peptides or drugs were dissolved in sterile H2 O and the volumes injected intravenously were usually 0.1 ml and never exceeded 0.2 ml.

The test system of test [2] is pressor activity of FMRF-NH2 in urethane-anesthetized rats. The test is described as follows: Pressor activity of FMRF-NH2 after pretreatment with vasodepressor drugs and pharmacologic antagonists. It is filed as in vivo. To be noted: for Effect of drug pretreatment on pressor activity of FMRF-NH2: FMRF-NH2 challenge 16, 128, 512 nmol/kg i.v. 5-10 minutes after drug pretreatment; for Attenuation of the FMRFamide pressor effect: FMRF-NH2 challenge 16, 128, 512 nmol/kg i.v. after pretreatment with drugs interacting with the α-adrenergic system; for Effect of lower doses of drug on FMRFamide pressor effect: effective at blocking norepinephrine hydrochloride 3 to 15 μg/kg.

Test [3] relates to pressor effects of angiotensin II, Arg^8 -vasopressin, norepinephrine hydrochloride. The experiment in a line: Effectiveness of the antagonists against their respective pressor agonists. It is filed as in vivo, rats. The following applies: for Blocking of the pressor effects of norepinephrine hydrochloride: lower doses of drug, norepinephrine hydrochloride 3 to 15 μg/kg.

Counter-ions that a name gives are not always drawn.

`N[C@@H](Cc1ccccc1)C(=O)O` [F-- OH, phenylalanine]: in test [1], the “Pressor activity (blood pressure elevation), in words” value (shortened to “Pressor activity … in words”) is “Neither arginine nor phenylalanine nor phenylalanine-amide were active”; the “Maximal increase in blood pressure mm Hg diastolic” value is 0 mm Hg; the “Maximal increase in blood pressure mm Hg systolic” value is on record as 0 mm Hg.

As to `NC(=O)[C@@H](N)Cc1ccccc1` [F--NH2, phenylalanine-amide], in test [1], the “Pressor activity … in words” value is “Neither arginine nor phenylalanine nor phenylalanine-amide were active”; the “Maximal increase in blood pressure mm Hg diastolic” value stood at 0 mm Hg; the “Maximal increase in blood pressure mm Hg systolic” value was determined as 0 mm Hg.

On to `CC(COc1ccccc1)N(CCCl)Cc1ccccc1` (stereo not drawn) [Phenoxybenzamine hydrochloride], for which the “Effect of drug pretreatment on pressor activity of FMRF-NH2” value (from here on “Effect of drug pretreatment”) in test [2] was “no effect”.

`N=C(N)NCCC[C@H](N)C(=O)O` [R--OH, arginine]: in test [1], the “Pressor activity … in words” value is given as “Neither arginine nor phenylalanine nor phenylalanine-amide were active”; the “Maximal increase in blood pressure mm Hg diastolic” value was found to be 0 mm Hg; the “Maximal increase in blood pressure mm Hg systolic” value is 0 mm Hg.

In the case of `CN1[C@@H]2CC[C@H]1C[C@@H](OC(=O)C(CO)c1ccccc1)C2` (stereo partly drawn) [atropine], in test [2], the “Effect of drug pretreatment” value was “did not modify”.

As to `Clc1cccc(Cl)c1N=C1NCCN1` [clonidine hydrochloride], the “Attenuation of the FMRFamide pressor effect” value (“Attenuation” for short) in test [2] is 30-75%.

`CN1CCC(=C2c3ccccc3C=Cc3ccccc32)CC1` [cyproheptadine]: the “Effect of drug pretreatment” value in test [2] is on record as “did not modify”.

Turning to `CN1C[C@H](C(=O)N[C@]2(C)O[C@@]3(O)[C@@H]4CCCN4C(=O)[C@H](Cc4ccccc4)N3C2=O)C[C@@H]2c3cccc4[nH]cc(c34)C[C@H]21` [dihydroergotamine mesylate], the “Attenuation” value in test [2] is listed as 30-75%.

Turning to `C[N+](C)(C)CCCCCC[N+](C)(C)C` [hexamethonium bromide], the “Effect of drug pretreatment” value in test [2] is “not blocked”.

`C=CCN1CC[C@]23c4c5ccc(O)c4O[C@H]2C(=O)CC[C@@]3(O)[C@H]1C5.Cl` [nalozone hydrochloride]: the “Effect of drug pretreatment” value in test [2] was “did not modify”.

In the case of `Cc1ccc(N(CC2=NCCN2)c2cccc(O)c2)cc1` [phentolamine hydrochloride], in test [2], the “Attenuation” value was 30-75% and the “Effect of lower doses of drug on FMRFamide pressor effect” value was “did not affect”. In test [3], the “Blocking of the pressor effects of norepinephrine hydrochloride” value was “effective at blocking”.

For the compound `CCCO` [propanol hydrochloride], in test [2], the “Effect of drug pretreatment” value is “not blocked”.

Consider `COC(=O)[C@H]1[C@H]2C[C@@H]3c4[nH]c5cc(OC)ccc5c4CCN3C[C@H]2C[C@@H](OC(=O)c2cc(OC)c(OC)c(OC)c2)[C@@H]1OC` [reserpine], for which the “Effect of drug pretreatment” value in test [2] is given as “did not modify”.

`CNCC(=O)N[C@@H](CCCN=C(N)N)C(=O)N[C@H](C(=O)N[C@@H](Cc1ccc(O)cc1)C(=O)N[C@H](C(=O)N[C@@H](Cc1cnc[nH]1)C(=O)N1CCC[C@H]1C(=O)N[C@@H](C)C(=O)O)C(C)C)C(C)C` [saralasin]: in test [2], the “Effect of drug pretreatment” value is recorded as “not blocked”. Further, the “Antagonism of angiotensin II” value in test [3] (agonist angiotensin II 2 μg/kg) is “effective antagonists”.

For the compound `c1ccc(CC2=NCCN2)cc1` [tolazoline hydrochloride], in test [2], the “Attenuation” value was 30-75% and the “Effect of lower doses of drug on FMRFamide pressor effect” value is “did not affect”. For the same compound, in test [3], the “Blocking of the pressor effects of norepinephrine hydrochloride” value was “effective at blocking”.

For the compound “(1-(β-mercapto-β,β-cyclopentamethylene propionic acid), 2-(0-methyl)tyrosine)Arg^8 -Vasopressin”, the “Effect of drug pretreatment” value in test [2] was “not blocked”. Also, the “Antagonism of Arg^8 -vasopressin” value in test [3] (agonist Arg^8 -vasopressin 1 μg/kg) is “effective antagonists”.

Regarding “gamma 1-melanotropic stimulating hormone [q MSH]”, in test [1], the “Duration of blood pressure effect” value is given as “+++”; the “Pressor activity … in words” value is given as “exhibits pressor activity”; the “Maximal increase in blood pressure mm Hg diastolic” value turned out to be 70 mm Hg; the “Maximal increase in blood pressure mm Hg systolic” value amounted to 90 mm Hg.

As to nitroprusside, the “Effect of drug pretreatment” value in test [2] is given as “did not modify”.
